Experimental data reported in patent publication US20100298141A1, “SUBSTITUTED PYRIDINE N-OXIDE HERBICIDES” (E. I. DU PONT DE NEMOURS AND COMPANY, priority 2007, published 2010).

Columns and labels:
barnyardgrass [1] = test: Test A pre-/postemergence greenhouse test; assay type: in vivo, Echinochloa crus-galli; settings: for Barnyardgrass plant response rating: 0 to 100 scale
Procedure, shortened: (§1)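 Sowing in loam/sand; same-day pre (directed soil spray) and post (foliar, 1–2 leaf, 2–10 cm) treatment with surfactant-containing non-phytotoxic solvent formulation; ~10 days in greenhouse; eye-scored injury against untreated plants.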

crabgrass [2] = test: Test A pre-/postemergence greenhouse test; assay type: in vivo, Digitaria sanguinalis; settings: for Crabgrass, Large plant response rating: 0 to 100 scale
Procedure, shortened: as §1

giant foxtail = test: Test A pre-/postemergence greenhouse test; assay type: in vivo, Setaria faberi; settings: for Foxtail, Giant plant response rating: 0 to 100 scale
Procedure, shortened: as §1

morningglory = test: Test A pre-/postemergence greenhouse test; assay type: in vivo, Ipomoea spp.; settings: for Morningglory plant response rating: 0 to 100 scale
Procedure, shortened: as §1

bermudagrass = test: Test C pre-/postemergence test; assay type: in vivo, Cynodon dactylon
Procedure, shortened: (§2)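 Seeds were planted and treated preemergence with test chemical in a non-phytotoxic solvent mixture containing surfactant. Postemergence applications of the same formulation went onto plants 2 to 18 cm tall (1- to 4-leaf stage). A dash marks no test result.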

Surinam grass = test: Test C pre-/postemergence test; assay type: in vivo, Brachiaria decumbens
Procedure, shortened: as §2

cocklebur = test: Test C pre-/postemergence test; assay type: in vivo, Xanthium strumarium
Procedure, shortened: as §2

crabgrass [3] = test: Test C pre-/postemergence test; assay type: in vivo, Digitaria sanguinalis
Procedure, shortened: as §2

Goosegrass = test: Test C pre-/postemergence test; assay type: in vivo, Eleusin indica
Procedure, shortened: as §2

kochia = test: Test C pre-/postemergence test; assay type: in vivo, Kochia scoparia
Procedure, shortened: as §2

lambsquarters = test: Test C pre-/postemergence test; assay type: in vivo, Chenopodium album
Procedure, shortened: as §2

pigweed = test: Test C pre-/postemergence test; assay type: in vivo, Amaranthus retroflexus
Procedure, shortened: as §2

soybean = test: Test C pre-/postemergence test; assay type: in vivo, Glycine max
Procedure, shortened: as §2

[4] = system: common (oilseed) sunflower; test: Test C pre-/postemergence test; assay type: in vivo, Helianthus annuus
From the text: Seeds of plant species selected from blackgrass (Alopecurus myosuroides), downy brome (Bromus tectorum), green foxtail (Setaria viridis), Italian ryegrass (Lolium multiflorum), wheat (Triticum aestivum), wild oat (Avena fatua), catchweed bedstraw (Galium aparine), Russian thistle (Salsola kali), […] (Cynodon dactylon), Surinam grass (Brachiaria decumbens), cocklebur (Xanthium strumarium), corn (Zea mays), crabgrass (Digitaria sanguinalis), woolly cupgrass (Eriochloa villosa), giant foxtail (Setaria faberii), Goosegrass (Eleusin indica), johnsongrass (Sorghum halepense), kochia (Kochia scoparia), lambsquarters (Chenopodium album), morningglory (Ipomoea coccinea), eastern black nightshade (Solanum ptycanthum), yellow nutsedge (Cyperus esculentus), pigweed (Amaranthus retroflexus), common ragweed (Ambrosia elation), soybean (Glycine max), common (oilseed) sunflower (Helianthus annuus), and velvetleaf (Abutilon theophrasti) were planted and treated preemergence with test chemicals formulated in a non-phytotoxic solvent mixture which included a surfactant. At the same time, plants selected from these crop and weed species and also winter barley (Hordeum vulgare), canarygrass (Phalaris minor), and chickweed (Stellaria media) were treated with postemergence applications of some of the test chemicals formulated in the same manner. Plants ranged in height from 2 to 18 cm (1- to 4-leaf stage) for postemergence treatments. […] At time of treatment, test pots were flooded to 3 cm above the soil surface, treated by application of test compounds directly to the paddy water, and then maintained at that water depth for the duration of the test. […] A dash (-) response means no test result.

umbrella sedge = test: Test C flooded paddy test; assay type: in vivo, Cyperus difformis; settings: Flood
Procedure, shortened: (§3)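 Under a constant 3 cm flood, test compounds went directly into the paddy water. Following 13 to 15 days of greenhouse growth, treated species and controls were compared by eye.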

barnyardgrass [5] = test: Test C flooded paddy test; assay type: in vivo, Echinochloa crus-galli; settings: Flood
Procedure, shortened: as §3

[6] = Postemergence, 125 g ai/ha, 0 is no effect, 100 is complete control
[7] = Postemergence, 500 g ai/ha, 0 is no effect, 100 is complete control
[8] = Preemergence, 125 g ai/ha, 0 no effect, 100 complete control
[9] = Preemergence, 500 g ai/ha, 0 to 100 scale where 0 is no effect and 100 is complete control
[10] = 125 g ai/ha, preemergence, scale 0 (no effect) to 100 (complete control)
[11] = Preemergence, 31 g ai/ha, scale 0 to 100 (0 no effect, 100 complete control)
[12] = preemergence, 250 g ai/ha, scale 0 (no effect) to 100 (complete control)
[13] = 62 g ai/ha, Preemergence, scale 0 to 100
[14] = 31 g ai/ha, scale 0 to 100 (0 no effect, 100 complete control)
[15] = 62 g ai/ha, scale 0 to 100, 0 no effect, 100 complete control, 13 to 15 days
[16] = 125 g ai/ha, scale 0 to 100, 0 no effect, 100 complete control, 13 to 15 days
[17] = 250 g ai/ha, scale 0 to 100, 0 no effect, 100 complete control, 13 to 15 days

With Cn1nc(C(F)(F)F)c(C[S+]([O-])c2cc(Cl)cc[n+]2[O-])c1Cl (racemic) [Compound 39] the “Barnyardgrass plant response rating” value (barnyardgrass [1]; [6]) was 70, the “Barnyardgrass plant response rating” value (barnyardgrass [1]; [7]) was 90 and the “Barnyardgrass plant response rating” value (barnyardgrass [1]; [8]) was 90. For the same compound, the “Plant response rating, Barnyardgrass” value (barnyardgrass [1]; [9]) was 100, the “Crabgrass, Large plant response rating” value (crabgrass [2]; [6]) was 80 and the “Crabgrass, Large plant response rating” value (crabgrass [2]; [7]) was 80. For the same compound, the “Crabgrass, Large plant response rating” value (crabgrass [2]; [8]) was 90, the “Plant response rating, Crabgrass, Large” value (crabgrass [2]; [9]) was 90 and the “Foxtail, Giant plant response rating” value (giant foxtail; [6]) was 80. The “Foxtail, Giant plant response rating” value (giant foxtail; [7]) was 90, the “Foxtail, Giant plant response rating” value (giant foxtail; [8]) was 100 and the “Plant response rating, Foxtail, Giant” value (giant foxtail; [9]) was 100. The “Morningglory plant response rating” value (morningglory; [6]) was 60, the “Morningglory plant response rating” value (morningglory; [7]) was 100 and the “Morningglory plant response rating” value (morningglory; [8]) was 80. For the same compound, the “Plant response rating, Morningglory” value (morningglory; [9]) was 100, the “Bermudagrass plant response rating” value (bermudagrass; 62 g ai/ha, Preemergence, scale 0 to 100 (0 no effect, 100 complete control)) was 100 and the “Bermudagrass plant response rating” value (bermudagrass; [10]) was 100. For the same compound, the “Plant response rating, Bermudagrass” value (bermudagrass; [11]) was 85, the “Bermudagrass plant response rating” value (bermudagrass; [12]) was 100 and the “Surinam Grass plant response rating” value (Surinam grass; [13]) was 80. For the same compound, the “Surinam Grass plant response rating” value (Surinam grass; [10]) was 90, the “Plant response rating, Surinam Grass” value (Surinam grass; [11]) was 60 and the “Surinam Grass plant response rating” value (Surinam grass; [12]) was 90. For the same compound, the “Cocklebur plant response rating” value (cocklebur; [13]) was 0, the “Cocklebur plant response rating” value (cocklebur; [10]) was 0 and the “Plant response rating, Cocklebur” value (cocklebur; [11]) was 0. For the same compound, the “Cocklebur plant response rating” value (cocklebur; [12]) was 0, the “Crabgrass, Large plant response rating” value (crabgrass [3]; [13]) was 90 and the “Crabgrass, Large plant response rating” value (crabgrass [3]; [10]) was 100. The “Plant response rating, Crabgrass, Large” value (crabgrass [3]; [11]) was 80, the “Crabgrass, Large plant response rating” value (crabgrass [3]; [12]) was 100 and the “Goosegrass plant response rating” value (Goosegrass; [13]) was 100. The “Goosegrass plant response rating” value (Goosegrass; [10]) was 100, the “Plant response rating, Goosegrass” value (Goosegrass; [11]) was 98 and the “Goosegrass plant response rating” value (Goosegrass; [12]) was 100. For the same compound, the “Kochia plant response rating” value (kochia; [13]) was 0, the “Kochia plant response rating” value (kochia; [10]) was 60 and the “Plant response rating, Kochia” value (kochia; [11]) was 0. For the same compound, the “Kochia plant response rating” value (kochia; [12]) was 100, the “Lambsquarters plant response rating” value (lambsquarters; [13]) was 80 and the “Lambsquarters plant response rating” value (lambsquarters; [10]) was 100. For the same compound, the “Plant response rating, Lambsquarters” value (lambsquarters; [11]) was 75, the “Lambsquarters plant response rating” value (lambsquarters; [12]) was 100 and the “Pigweed plant response rating” value (pigweed; [13]) was 100. The “Pigweed plant response rating” value (pigweed; [10]) was 100, the “Plant response rating, Pigweed” value (pigweed; [11]) was 100 and the “Pigweed plant response rating” value (pigweed; [12]) was 100. For the same compound, the “Soybean plant response rating” value (soybean; [13]) was 0, the “Soybean plant response rating” value (soybean; [10]) was 10 and the “Plant response rating, Soybean” value (soybean; [11]) was 0. For the same compound, the “Soybean plant response rating” value (soybean; [12]) was 10, the “Sunflower plant response rating” value [4, 13] was 0 and the “Sunflower plant response rating” value [4, 10] was 0. For the same compound, the “Plant response rating, Sunflower” value [4, 11] was 0, the “Sunflower plant response rating” value [4, 12] was 75 and the “Plant response rating, Sedge, Umbrella” value (umbrella sedge; [14]) was 70. For the same compound, the “Plant response rating, Sedge, Umbrella” value (umbrella sedge; [15]) was 85, the “Plant response rating, Sedge, Umbrella” value (umbrella sedge; [16]) was 95 and the “Plant response rating, Sedge, Umbrella” value (umbrella sedge; [17]) was 95. For the same compound, the “Plant response rating, Barnyardgrass” value (barnyardgrass [5]; [14]) was 0, the “Plant response rating, Barnyardgrass” value (barnyardgrass [5]; [15]) was 0 and the “Plant response rating, Barnyardgrass” value (barnyardgrass [5]; [16]) was 30. The “Plant response rating, Barnyardgrass” value (barnyardgrass [5]; [17]) was 65.
